Measurements as given in patent US20250074871A1, “PHENETHYLAMINES AND METHODS OF PREPARATION THEREOF” (priority 2022, published 2025).

Tests used:
Format in all cases: cell-based
5-HT1D = 5-HT1D (Homo sapiens, UniProt P28221); assay: 5-HT receptor activity panel (Table 3)
5-HT5A = 5-HT5A (Homo sapiens, UniProt P47898); assay: 5-HT receptor activity panel (Table 3)
5-HT7 = 5-HT7 (Homo sapiens, UniProt P34969); assay: 5-HT receptor activity panel (Table 3)
5-HT1B = 5-HT1B (Homo sapiens, UniProt P28222); assay: 5-HT receptor activity panel (Table 3)
Sequence of 5-HT1B (P28222 whole entry, species assumed): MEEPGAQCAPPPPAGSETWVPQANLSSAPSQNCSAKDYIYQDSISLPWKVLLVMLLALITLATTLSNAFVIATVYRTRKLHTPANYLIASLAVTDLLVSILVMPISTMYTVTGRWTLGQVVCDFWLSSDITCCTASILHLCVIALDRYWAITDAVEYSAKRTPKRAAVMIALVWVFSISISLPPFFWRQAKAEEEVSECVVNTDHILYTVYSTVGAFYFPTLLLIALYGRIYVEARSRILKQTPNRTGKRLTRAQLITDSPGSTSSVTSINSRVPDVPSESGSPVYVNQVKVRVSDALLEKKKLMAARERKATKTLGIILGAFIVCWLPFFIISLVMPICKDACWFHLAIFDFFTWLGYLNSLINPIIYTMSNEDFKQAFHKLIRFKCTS

5-HT4 = 5-HT4 (Homo sapiens, UniProt Q13639); assay: 5-HT receptor activity panel (Table 3)
Sequence of 5-HT4 (Q13639 whole entry, species assumed): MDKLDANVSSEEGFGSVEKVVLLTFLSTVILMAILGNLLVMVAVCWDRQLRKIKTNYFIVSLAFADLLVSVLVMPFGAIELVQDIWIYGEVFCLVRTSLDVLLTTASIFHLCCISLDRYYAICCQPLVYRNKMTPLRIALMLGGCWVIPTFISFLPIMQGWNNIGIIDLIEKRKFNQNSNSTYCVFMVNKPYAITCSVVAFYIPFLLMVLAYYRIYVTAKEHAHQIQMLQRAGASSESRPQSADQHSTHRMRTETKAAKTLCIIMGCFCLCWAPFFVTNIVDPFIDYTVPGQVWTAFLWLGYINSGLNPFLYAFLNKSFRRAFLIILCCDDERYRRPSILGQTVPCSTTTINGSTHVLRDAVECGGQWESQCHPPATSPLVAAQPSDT

5-HT1A = molecular target: T1, 5-HT1A (Homo sapiens, UniProt P08908); assay: 5-HT receptor activity panel (Table 3)
T1 sequence (P08908 1-422): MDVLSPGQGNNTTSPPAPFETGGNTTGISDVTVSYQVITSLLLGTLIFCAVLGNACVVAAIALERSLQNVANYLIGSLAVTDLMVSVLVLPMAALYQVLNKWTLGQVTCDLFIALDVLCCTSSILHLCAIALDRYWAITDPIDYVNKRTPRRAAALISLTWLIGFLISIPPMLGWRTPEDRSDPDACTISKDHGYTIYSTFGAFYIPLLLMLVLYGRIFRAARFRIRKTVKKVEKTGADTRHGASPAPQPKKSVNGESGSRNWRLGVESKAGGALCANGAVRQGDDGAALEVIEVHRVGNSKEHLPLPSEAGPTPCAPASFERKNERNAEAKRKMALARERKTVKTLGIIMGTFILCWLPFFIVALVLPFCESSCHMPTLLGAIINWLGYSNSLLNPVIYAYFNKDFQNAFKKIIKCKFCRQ

5-HT6 = 5-HT6 (Homo sapiens, UniProt P50406); assay: 5-HT receptor activity panel (Table 3); details: Table 3
Sequence of 5-HT6 (P50406 whole entry, species assumed): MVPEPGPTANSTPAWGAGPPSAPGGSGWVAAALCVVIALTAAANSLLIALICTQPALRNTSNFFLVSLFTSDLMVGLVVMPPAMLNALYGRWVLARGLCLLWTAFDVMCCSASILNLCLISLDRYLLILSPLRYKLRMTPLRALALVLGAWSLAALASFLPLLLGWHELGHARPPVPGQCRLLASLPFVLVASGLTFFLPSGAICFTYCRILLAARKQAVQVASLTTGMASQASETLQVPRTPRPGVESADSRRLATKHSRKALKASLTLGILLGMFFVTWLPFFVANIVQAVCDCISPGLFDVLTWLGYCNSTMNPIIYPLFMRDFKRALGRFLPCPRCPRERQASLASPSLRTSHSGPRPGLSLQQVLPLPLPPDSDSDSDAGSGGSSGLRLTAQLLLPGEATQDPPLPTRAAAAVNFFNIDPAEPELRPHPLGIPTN

5-HT1E = 5-HT1E (Homo sapiens, UniProt P28566); assay: 5-HT receptor activity panel (Table 3)
Sequence of 5-HT1E (P28566 whole entry, species assumed): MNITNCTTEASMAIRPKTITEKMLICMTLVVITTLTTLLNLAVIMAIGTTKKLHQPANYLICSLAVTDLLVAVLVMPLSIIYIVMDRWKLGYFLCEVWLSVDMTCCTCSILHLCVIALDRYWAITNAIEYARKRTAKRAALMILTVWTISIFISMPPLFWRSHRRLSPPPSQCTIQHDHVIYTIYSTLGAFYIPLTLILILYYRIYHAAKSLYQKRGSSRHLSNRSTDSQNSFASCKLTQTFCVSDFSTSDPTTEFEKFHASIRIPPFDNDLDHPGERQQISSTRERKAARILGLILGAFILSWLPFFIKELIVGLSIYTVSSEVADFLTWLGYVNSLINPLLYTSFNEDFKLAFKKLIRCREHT

5-HT2B receptor = molecular target: T2, 5-HT2B receptor (Homo sapiens, UniProt P41595); assay: 5-HT2B Gq dissociation BRET functional assay
T2 construct: expressed in transfected cells; host or cells: HEK293T
T2 sequence (P41595 whole entry): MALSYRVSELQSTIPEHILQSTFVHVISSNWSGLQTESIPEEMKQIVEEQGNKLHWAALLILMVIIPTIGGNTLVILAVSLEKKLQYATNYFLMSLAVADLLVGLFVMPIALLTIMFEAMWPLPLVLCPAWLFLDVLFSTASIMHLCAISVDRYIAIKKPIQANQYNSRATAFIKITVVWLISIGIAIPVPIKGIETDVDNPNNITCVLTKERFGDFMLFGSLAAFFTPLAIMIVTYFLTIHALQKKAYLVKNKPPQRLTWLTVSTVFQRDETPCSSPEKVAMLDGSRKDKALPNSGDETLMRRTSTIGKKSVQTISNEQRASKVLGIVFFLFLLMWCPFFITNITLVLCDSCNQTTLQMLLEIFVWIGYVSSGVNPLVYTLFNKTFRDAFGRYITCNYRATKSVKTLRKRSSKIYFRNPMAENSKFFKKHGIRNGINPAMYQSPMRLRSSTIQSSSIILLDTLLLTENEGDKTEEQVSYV

5-HT2A receptor = molecular target: T3, 5-HT2A receptor (Homo sapiens, UniProt P28223); assay: 5-HT2A Gq dissociation BRET functional assay
T3 construct: expressed in transfected cells; host or cells: HEK293T
T3 sequence (P28223 whole entry): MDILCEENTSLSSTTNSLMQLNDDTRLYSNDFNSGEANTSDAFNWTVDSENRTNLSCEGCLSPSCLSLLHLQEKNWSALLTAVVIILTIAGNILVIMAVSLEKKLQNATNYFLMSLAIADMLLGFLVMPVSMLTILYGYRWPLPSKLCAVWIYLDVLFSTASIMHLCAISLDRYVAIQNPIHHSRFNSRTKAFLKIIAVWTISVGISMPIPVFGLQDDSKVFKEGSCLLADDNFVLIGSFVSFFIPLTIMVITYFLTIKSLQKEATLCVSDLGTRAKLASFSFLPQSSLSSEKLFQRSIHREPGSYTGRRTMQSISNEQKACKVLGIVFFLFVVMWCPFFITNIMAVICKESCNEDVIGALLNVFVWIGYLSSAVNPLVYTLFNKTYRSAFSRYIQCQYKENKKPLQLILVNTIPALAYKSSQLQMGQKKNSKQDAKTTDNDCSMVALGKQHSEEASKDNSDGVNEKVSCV

5-HT1F = molecular target: T4, 5-HT1F (Homo sapiens, UniProt P30939); assay: 5-HT receptor activity panel (Table 3); details: Table 3
T4 sequence (P30939 1-366): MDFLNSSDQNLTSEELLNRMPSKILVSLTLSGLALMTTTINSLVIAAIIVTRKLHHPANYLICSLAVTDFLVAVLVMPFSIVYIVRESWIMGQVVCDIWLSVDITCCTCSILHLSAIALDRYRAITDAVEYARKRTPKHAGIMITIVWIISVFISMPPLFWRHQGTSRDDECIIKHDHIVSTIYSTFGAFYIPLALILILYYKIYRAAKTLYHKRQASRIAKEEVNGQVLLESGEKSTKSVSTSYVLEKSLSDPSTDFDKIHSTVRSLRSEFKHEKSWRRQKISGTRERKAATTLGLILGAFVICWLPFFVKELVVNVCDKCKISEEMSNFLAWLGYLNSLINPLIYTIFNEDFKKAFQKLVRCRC

[1] = Table 2, normalized to % 5-HT stimulation

Sequence of 5-HT7 (P34969 whole entry, species assumed): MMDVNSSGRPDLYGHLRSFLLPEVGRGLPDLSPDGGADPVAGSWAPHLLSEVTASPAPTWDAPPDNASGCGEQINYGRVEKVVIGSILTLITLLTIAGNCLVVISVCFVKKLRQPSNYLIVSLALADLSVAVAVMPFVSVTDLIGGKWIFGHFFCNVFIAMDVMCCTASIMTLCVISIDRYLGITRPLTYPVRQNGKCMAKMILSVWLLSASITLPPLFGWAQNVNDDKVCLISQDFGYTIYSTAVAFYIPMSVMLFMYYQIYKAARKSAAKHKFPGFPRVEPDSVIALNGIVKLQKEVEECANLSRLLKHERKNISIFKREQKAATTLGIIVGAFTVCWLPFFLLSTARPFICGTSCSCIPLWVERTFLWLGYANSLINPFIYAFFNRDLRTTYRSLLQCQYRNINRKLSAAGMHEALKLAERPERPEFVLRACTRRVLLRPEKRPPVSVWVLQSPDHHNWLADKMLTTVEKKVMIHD
Sequence of 5-HT1D (P28221 whole entry, species assumed): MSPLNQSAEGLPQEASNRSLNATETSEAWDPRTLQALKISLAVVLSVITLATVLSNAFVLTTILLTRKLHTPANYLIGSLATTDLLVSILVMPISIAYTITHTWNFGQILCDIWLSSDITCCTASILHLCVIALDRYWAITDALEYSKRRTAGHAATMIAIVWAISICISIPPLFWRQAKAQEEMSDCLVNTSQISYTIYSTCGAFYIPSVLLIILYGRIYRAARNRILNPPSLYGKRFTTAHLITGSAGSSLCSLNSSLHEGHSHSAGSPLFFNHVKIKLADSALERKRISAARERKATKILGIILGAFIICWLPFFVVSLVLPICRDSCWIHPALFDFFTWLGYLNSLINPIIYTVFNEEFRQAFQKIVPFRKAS
Sequence of 5-HT5A (P47898 whole entry, species assumed): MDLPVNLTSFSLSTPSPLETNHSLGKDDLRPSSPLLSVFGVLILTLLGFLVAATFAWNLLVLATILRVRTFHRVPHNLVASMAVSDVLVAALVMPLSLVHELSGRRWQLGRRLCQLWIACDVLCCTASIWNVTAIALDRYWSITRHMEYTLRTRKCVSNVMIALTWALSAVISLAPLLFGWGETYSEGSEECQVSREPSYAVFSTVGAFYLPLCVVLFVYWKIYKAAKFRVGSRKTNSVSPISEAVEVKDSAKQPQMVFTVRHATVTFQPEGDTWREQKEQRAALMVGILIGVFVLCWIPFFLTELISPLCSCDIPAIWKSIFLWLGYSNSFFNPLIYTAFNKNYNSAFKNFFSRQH

CN(C)CCc1c[nH]c2cccc(O)c12 [psilocin, reference compound]
EC50 (5-HT1D): 2.2 nM | 5-HT1D Eff, % (5-HT1D; Table 3): 102% | EC50 (5-HT5A): 349 nM | 5-HT5A Eff, % (5-HT5A; Table 3): 48% | EC50 (5-HT7): 525 nM | 5-HT7 Eff, % (5-HT7; Table 3): 86% | EC50 (5-HT1B): 14.3 nM | 5-HT1B Eff, % (5-HT1B; Table 3): 94% | EC50 (5-HT4): 563 nM | 5-HT4 Eff, % (5-HT4; Table 3): 81% | EC50 (5-HT1A): 46.9 nM | 5-HT1A Eff, % (5-HT1A; Table 3): 93% | 5-HT6 Eff, % (5-HT6): 74% | EC50 (5-HT6; read-out: 5-HT6 EC50): 182 nM | EC50 (5-HT1E): 10.4 nM | 5-HT1E Eff, % (5-HT1E; Table 3): 90% | 5-HT2B BRET Eff % (5-HT2B receptor; [1]): 63% | 5-HT2B Eff, % (5-HT2B receptor; Table 3 panel): 32% | 5-HT2A BRET Eff % (5-HT2A receptor; [1]): 82% | 5-HT2A Eff, % (5-HT2A receptor; Table 3 panel): 80% | 5-HT1F Eff, % (5-HT1F): 93%
